Values quoted from earlier work, collected in article PMC2552397 (Journal of medicinal chemistry, 2008).

What was measured:
[1] = biological target: T1, GGPPS (Homo sapiens, UniProt O95749); conditions: in words
T1 sequence (O95749 1-300): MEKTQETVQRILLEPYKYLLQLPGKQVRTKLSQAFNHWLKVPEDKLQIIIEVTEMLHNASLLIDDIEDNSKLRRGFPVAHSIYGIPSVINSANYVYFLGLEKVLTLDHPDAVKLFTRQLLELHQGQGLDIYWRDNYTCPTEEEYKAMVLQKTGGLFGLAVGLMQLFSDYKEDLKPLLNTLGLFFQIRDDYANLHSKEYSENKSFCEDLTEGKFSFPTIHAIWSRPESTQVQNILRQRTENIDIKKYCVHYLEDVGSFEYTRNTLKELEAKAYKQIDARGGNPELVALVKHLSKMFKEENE

[2] = tested on: K562 tumor cell line; conditions: in words

Structure (SMILES)	activity against GGPPS [1]	activity against a K562 tumor cell line [2]
CCCCCCCCCC(O)(P(=O)(O)O)P(=O)(O)O [compound 4]	quite potent activity	–
CC(C)=CCC/C(C)=C/CC(C/C=C(\C)CCC=C(C)C)(P(=O)(O)O)P(=O)(O)O [compound 5, digeranyl methylene bisphosphonate]	potent activity	potent activity
